According to patent US9108930B2, “N1- and N2-carbamoyl-1,2,3-triazole serine hydrolase inhibitors and methods” (The Scripps Research Institute, priority 2011, dated 2015):

Experiments:
[1] = biological target: T1, DAGLB (Mus musculus, UniProt Q91WC9); experiment: ABPP-MudPIT of peritoneal macrophages from treated mice; settings: in vivo
T1 sequence (Q91WC9 1-669): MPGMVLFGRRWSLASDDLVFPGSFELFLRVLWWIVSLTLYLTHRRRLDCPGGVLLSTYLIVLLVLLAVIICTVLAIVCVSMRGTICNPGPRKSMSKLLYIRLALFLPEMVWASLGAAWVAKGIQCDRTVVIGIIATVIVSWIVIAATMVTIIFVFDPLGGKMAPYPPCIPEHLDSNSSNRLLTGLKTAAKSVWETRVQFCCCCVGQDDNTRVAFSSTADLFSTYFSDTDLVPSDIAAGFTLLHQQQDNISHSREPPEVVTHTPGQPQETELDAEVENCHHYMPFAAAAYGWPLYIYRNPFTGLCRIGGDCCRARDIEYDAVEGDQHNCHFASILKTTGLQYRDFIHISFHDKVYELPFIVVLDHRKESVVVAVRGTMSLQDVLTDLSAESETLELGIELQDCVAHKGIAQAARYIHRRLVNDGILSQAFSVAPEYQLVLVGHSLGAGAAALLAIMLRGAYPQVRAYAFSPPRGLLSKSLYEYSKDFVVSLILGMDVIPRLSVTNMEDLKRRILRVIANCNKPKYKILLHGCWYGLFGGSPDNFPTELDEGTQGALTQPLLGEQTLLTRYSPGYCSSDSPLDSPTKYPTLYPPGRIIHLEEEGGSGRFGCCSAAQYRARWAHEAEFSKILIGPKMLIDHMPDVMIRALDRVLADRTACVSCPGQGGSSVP

[2] = test system: serine hydrolases in the peritoneal macrophage proteome; experiment: ABPP-MudPIT of peritoneal macrophages from treated mice, off-targets; settings: mouse, in vivo
[3] = biological target: T1, DAGLB; experiment: In vivo DAGLB inactivation in peritoneal macrophages, gel-based competitive ABPP using HT01; set-up: from tissue; host or cells: thioglycolate-elicited peritoneal macrophages of treated mice; settings: for dose (as low as) giving complete inactivation of DAGLB in peritoneal macrophages: about 4 hours, doses about 10 to about 0.1 mg/kg
[4] = test system: peritoneal macrophages of Pla2g4a-/- mice; experiment: Metabolomics of macrophages from treated Pla2g4a-/- mice; assay type: in vivo, mouse; settings: 5 mg/kg, 4 hours, i.p.
Protocol: Pla2g4a^−/− mice were treated with KT109 or KT195 (5 mg/kg, 4 hours, i.p.), thioglycolate-elicited macrophages were harvested, and then the macrophages were subjected to metabolomics analysis. The cellular levels of PGE2 and PGD2 were measured.
Metabolites were quantified by either selected reaction monitoring (SRM) of each metabolite using an Agilent G6410B Triple-Quad instrument or untargeted metabolomic analysis (substrate assays) using an Agilent 1100 series LC-MSD SL instrument. […] For analysis of diacylglycerols (DAGs) a Luna C5 column (50 mm×4.60 mm with 5 μm diameter particles) from Phenomenex was used. Mobile phase A was made of 95:5 v/v H2O:MeOH, and mobile phase B was composed of 60:35:5 v/v/v i-PrOH:MeOH:H2O. Ammonium hydroxide (0.1%) and formic acid (0.1%) was included to assist in ion formation in negative and positive ionization modes, respectively. For analysis of DAGs, 5 mM ammonium formate was also used in addition to 0.1% formic acid to assist in positive ionization and NH4+ adduct formation. For metabolite measurements, cells were resuspended in 1 mL of a 1% NaCl solution and added to 3 mL of a 2:1 v/v CHCl3:MeOH doped with 1 nmol of the following internal standards: d5-2-arachidonoylglycerol (2-AG), d8-arachidonic acid (AA), and d8-1-stearoyl-2-arachidonoylglycerol (SAG). The mixture was vortexed and then centrifuged (1,400×g, 3 min). The organic layer was removed, CHCl3 was added until the final volume was again 4 ml, and the extraction was repeated. The combined organic extracts were dried under a stream of N2 and resolubilized in 2:1 v/v CHCl3:MeOH (120 μl). 30 μL of resolubilized lipids were injected for positive mode (MAGs and DAGs) and negative mode (free fatty acids and eicosanoids) measurements.
The following parameters (MS) were used to measure the indicated metabolites by SRM (precursor ion, product ion, collision energy in V, polarity): C20:4 MAG or 2-AG (379, 287, 8, positive), d5-2-AG (384, 287, 5, positive), C18:0/C20:4 DAG or SAG (662, 341, 15, positive), d8-SAG (671, 671, 0, positive), C18:1/C20:4 DAG (660, 341, 15, positive), C16:0/C20:4 DAG (634, 341, 15, positive), C14:0/C20:4 DAG (606, 341, 15, positive), arachidonic acid or AA (303, 303, 0, negative), d8-AA (311, 267, 5, negative), PGE2 (351, 271, 10, negative), and PGD2 (351, 271, 10, negative). MS analysis was performed with an electrospray ionization source with the following parameters: drying gas temperature=350° C., drying gas flow rate=11 L/min, and the nebulizer pressure=35 psi. Prostaglandin SRM parameters were based on previously reported methods and transitions. Metabolites targeted by SRM were quantified by measuring the area under the peak in comparison with the internal standards. […]

Row | Structure (SMILES) | DAGLB inhibition by spectral counting [1] | off-target activities [2] | time to complete inhibition of DAGLB ([3]; 5 mg/kg, i.p.) | dose (as low as) giving complete inactivation of DAGLB in peritoneal macrophages ([3]; i.p.) [mg/kg] | inhibition at 5 mg/kg ([3]; mouse, ip, read-out: persistent inhibition of DAGLB after 16 hours) [%] | PGD2 level [4] | change in PGE2 [4] | duration / time-course of DAGLB inhibition ([3]; 5 mg/kg, i.p., about 1 to 16 hours)
1 | O=C(N1CCCCC1Cc1ccccc1)n1cc(-c2ccc(-c3ccccc3)cc2)nn1 (stereo not shown) [KT109] | confirmed inhibition of DAGLB | carboxylesterases (Ces3 and Ces2g) | within the first hour | 0.5 | ~90 | remained undetectable | significant decrease in PGE2 | –
2 | COc1ccc(-c2ccc(-c3cn(C(=O)N4CCCCC4c4ccccc4)nn3)cc2)cc1 (stereo not shown) [KT195] | no activity against DAGLB | also inhibited | – | > 10 | – | remained undetectable | not observed | no evidence of DAGLB inhibition during the entire time-course of treatment
